The text below walks through data of ChEMBL document CHEMBL1131178, “Novel disaccharide inhibitors of human glioma cell division” (1998).

The subject of the assay is C6. Description: Inhibitory activity against rat C6 Glioma cells stimulated with Fetal bovine serum; Not detectable. Type of assay: functional, cell-based.
On to `CCCCCCCCO[C@H]1O[C@@H](CO)[C@@H](OCC(CO)(CO)COS(=O)(=O)O)[C@H](O[C@@H]2OC(C)[C@@H](O)[C@H](O)[C@@H]2O)[C@@H]1NC(C)=O` (some centres undefined), for which the ID50 result was “Not detectable”. As to `CCCCCCCCO[C@H]1O[C@@H](COCC(CO)(CO)COS(=O)(=O)O)[C@@H](OCC(CO)(CO)COS(=O)(=O)O)[C@H](O[C@@H]2O[C@@H](C)[C@@H](O)[C@H](O)[C@@H]2O)[C@@H]1NC(C)=O`, the ID50 entry is “Not detectable”. Turning to `CCCCCCCCOC1OC(COCC(CO)(CO)CO)C(O)C(OC2OC(C)C(O)C(O)C2O)C1NC(C)=O` (centres undefined), the ID50 result was “Not detectable”. On to `CCCCCCCCO[C@H]1O[C@@H](COCC(CO)(CO)COS(=O)(=O)O)C(O)[C@H](O[C@@H]2O[C@@H](C)[C@@H](O)[C@H](O)[C@@H]2O)[C@@H]1NC(C)=O` (some centres undefined), for which the ID50 entry is “Not detectable”.
